pIC50: −log10 of the molar value.
Legend:
human TLR9 = human TLR9 (Homo sapiens (Human), UniProt Q9NR96); experiment: TLR9 inhibition reporter assay (HEK-Blue SEAP); conditions: read-out: TLR9 IC50; HEK-Blue cells overexpressing human TLR9, ODN2006 5 nM stimulation, SEAP reporter;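 further: SEAP driven by an IFN-β minimal promoter with NF-κB and AP-1 sites, read after 22 h, compounds dosed 0.05 nM–50 µM, inhibition scaled between agonist plus DMSO and reference-inhibitor wells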
human TLR8 = human TLR8 (Homo sapiens (Human), UniProt Q9NR97); experiment: TLR8 inhibition reporter assay (HEK-Blue SEAP); conditions: read-out: TLR8 IC50; HEK-Blue cells overexpressing human TLR8, R848 15.9 μM stimulation, SEAP reporter;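 further: SEAP driven by IFN-β minimal promoter carrying NF-κB and AP-1 sites, compounds dosed 0.05 nM to 50 µM for 22 h, inhibition scaled between agonist-plus-DMSO and reference-inhibitor wells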
human TLR7 = human TLR7 (Homo sapiens (Human), UniProt Q9NYK1); experiment: TLR7 inhibition reporter assay (HEK-Blue SEAP); assay type: cell-based; conditions: HEK-Blue cells overexpressing human TLR7, gardiquimod 7.5 μM stimulation, SEAP reporter
Chain of human TLR7 (Q9NYK1 27-1049): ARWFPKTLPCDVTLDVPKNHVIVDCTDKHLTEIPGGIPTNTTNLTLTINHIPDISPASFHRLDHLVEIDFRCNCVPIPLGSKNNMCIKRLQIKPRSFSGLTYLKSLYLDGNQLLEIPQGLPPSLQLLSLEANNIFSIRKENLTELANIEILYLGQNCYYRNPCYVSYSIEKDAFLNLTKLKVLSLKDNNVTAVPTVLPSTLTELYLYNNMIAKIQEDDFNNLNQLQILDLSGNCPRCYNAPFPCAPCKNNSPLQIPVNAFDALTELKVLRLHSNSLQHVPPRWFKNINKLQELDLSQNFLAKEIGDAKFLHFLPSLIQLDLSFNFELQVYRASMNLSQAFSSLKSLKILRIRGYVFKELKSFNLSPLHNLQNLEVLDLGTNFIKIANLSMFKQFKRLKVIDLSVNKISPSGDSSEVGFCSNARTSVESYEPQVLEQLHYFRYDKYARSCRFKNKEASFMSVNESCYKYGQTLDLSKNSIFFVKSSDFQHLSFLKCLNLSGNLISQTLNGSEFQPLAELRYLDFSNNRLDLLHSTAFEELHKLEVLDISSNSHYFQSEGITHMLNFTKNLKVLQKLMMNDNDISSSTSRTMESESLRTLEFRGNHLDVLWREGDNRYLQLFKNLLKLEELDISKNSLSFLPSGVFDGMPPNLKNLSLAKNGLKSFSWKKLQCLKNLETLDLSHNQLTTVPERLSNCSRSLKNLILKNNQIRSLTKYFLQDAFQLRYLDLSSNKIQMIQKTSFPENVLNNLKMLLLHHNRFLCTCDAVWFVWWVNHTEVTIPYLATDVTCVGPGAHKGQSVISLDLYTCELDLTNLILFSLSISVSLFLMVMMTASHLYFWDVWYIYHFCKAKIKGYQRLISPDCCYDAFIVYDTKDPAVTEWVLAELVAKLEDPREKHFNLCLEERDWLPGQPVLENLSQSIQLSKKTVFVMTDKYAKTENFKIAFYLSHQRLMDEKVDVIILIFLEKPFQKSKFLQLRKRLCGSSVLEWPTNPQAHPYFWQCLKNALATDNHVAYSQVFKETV
Experimental: HEK-Blue™-cells (Invivogen) overexpressing human TLR7, TLR8 or TLR9 receptors were used for screening inhibitors of these receptors using an inducible SEAP (secreted embryonic alkaline phosphatase) reporter gene under the control of the IFN-β minimal promoter fused to five NF-κB and AP-1-binding sites. Briefly, cells are seeded into Greiner 384 well plates (15000 cells per well for TLR7, 20,000 for TLR8 and 25,000 for TLR9) and then treated with test compounds in DMSO to yield a final dose response concentration range of 0.05 nM-50 μM. After a 30 minute compound pre-treatment at room temperature, the cells are then stimulated with a TLR7 ligand (gardiquimod at a final concentration of 7.5 μM), TLR8 ligand (R848 at a final concentration of 15.9 μM) or TLR9 ligand (ODN2006 at a final concentration of 5 nM) to activate NF-κB and AP-1 which induce the production of SEAP. After a 22 hour incubation at 37° C., 5% CO2, SEAP levels are determined with the addition of HEK-Blue™ Detection reagent (Invivogen), a cell culture medium that allows for detection of SEAP, according to manufacturer's specifications.

Chain of human TLR9 (Q9NR96 26-1032): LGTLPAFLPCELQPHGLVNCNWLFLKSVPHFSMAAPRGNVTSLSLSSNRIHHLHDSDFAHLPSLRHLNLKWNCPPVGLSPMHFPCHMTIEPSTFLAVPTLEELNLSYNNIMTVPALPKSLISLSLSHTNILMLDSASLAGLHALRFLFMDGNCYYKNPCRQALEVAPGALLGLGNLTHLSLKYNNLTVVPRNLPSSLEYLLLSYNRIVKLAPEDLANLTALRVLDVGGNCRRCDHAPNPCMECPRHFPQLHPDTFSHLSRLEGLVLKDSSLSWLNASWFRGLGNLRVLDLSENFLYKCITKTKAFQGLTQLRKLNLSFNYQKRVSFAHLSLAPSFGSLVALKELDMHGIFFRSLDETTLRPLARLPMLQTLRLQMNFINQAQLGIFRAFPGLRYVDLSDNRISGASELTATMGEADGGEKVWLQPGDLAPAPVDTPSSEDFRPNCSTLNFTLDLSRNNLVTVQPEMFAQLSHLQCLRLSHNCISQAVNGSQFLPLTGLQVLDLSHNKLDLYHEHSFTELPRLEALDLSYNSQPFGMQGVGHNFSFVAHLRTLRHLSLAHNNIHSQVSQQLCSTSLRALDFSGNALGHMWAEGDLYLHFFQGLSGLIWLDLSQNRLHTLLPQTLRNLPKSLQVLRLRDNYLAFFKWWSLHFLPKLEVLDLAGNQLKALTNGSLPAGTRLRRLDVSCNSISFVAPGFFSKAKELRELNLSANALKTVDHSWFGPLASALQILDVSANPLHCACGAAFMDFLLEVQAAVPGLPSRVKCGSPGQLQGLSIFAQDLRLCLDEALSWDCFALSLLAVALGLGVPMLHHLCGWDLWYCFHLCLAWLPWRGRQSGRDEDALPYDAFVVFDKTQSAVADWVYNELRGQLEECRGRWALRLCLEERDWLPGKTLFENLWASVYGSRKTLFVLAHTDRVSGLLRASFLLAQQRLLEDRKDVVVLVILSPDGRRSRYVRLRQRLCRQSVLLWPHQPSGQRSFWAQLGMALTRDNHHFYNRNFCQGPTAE
Chain of human TLR8 (Q9NR97 27-1041): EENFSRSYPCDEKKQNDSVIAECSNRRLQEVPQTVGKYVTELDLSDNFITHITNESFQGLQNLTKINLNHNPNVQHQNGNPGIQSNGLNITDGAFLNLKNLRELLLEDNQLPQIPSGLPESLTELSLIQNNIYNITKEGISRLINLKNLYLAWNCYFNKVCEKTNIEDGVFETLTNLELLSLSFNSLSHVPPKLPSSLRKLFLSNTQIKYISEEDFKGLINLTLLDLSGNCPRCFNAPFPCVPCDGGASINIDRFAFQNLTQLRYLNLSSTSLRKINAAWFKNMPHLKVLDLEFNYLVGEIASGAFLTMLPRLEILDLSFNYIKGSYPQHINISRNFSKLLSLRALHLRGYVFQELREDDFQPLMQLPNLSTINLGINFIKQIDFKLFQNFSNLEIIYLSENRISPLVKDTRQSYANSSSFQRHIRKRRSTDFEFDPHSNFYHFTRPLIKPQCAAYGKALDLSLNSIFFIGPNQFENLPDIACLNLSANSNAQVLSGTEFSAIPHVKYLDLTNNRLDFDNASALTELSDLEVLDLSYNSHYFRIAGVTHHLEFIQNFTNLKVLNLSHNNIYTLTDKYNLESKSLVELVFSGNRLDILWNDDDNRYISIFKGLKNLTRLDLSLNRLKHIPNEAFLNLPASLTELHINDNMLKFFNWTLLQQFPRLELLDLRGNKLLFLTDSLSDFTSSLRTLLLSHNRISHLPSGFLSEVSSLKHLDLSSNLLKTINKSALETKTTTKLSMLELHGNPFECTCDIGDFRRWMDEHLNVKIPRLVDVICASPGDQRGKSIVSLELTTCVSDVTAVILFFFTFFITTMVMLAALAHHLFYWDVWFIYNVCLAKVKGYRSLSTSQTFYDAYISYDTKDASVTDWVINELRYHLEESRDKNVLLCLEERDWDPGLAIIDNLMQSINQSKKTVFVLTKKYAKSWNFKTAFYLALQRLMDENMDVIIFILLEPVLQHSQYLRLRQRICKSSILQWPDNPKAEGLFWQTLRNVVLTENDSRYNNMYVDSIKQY

Row | SMILES | pIC50 (human TLR9) | pIC50 (human TLR8) | pIC50 (human TLR7)
1 | COc1cc(-c2[nH]c3ccc(C4CCC(N5CCC[C@H]5CO)CC4)nc3c2C(C)C)cn2ncnc12 (stereo partly drawn) [Example 197] | 6.87 | 8.77 | 9.47
2 | COCCN(C)C1CCC(c2ccc3[nH]c(-c4cc(OC)c5ncnn5c4)c(C(C)C)c3n2)CC1 (stereo not drawn) [Example 198] | 5.94 | 8.11 | 9.00
3 | COc1cc(-c2[nH]c3ccc(C4CCC(N5CCCC5)CC4)nc3c2C(C)C)cn2ncnc12 (stereo not drawn) [Example 199] | 5.92 | 8.19 | 9.80
4 | CC(C)c1c(-c2cn(C)c3ncccc23)[nH]c2ccc(C3CCC(N(C)CC(=O)N(C)C)CC3)nc12 (stereo not drawn) [Example 200] | 6.11 | 8.07 | 8.74
5 | CC(C)c1c(-c2cn(C)c3ncccc23)[nH]c2ccc(C3CCC(N(C)CC(=O)N(C)C)CC3)nc12 (stereo not drawn) [Example 201] | 6.24 | 8.22 | 8.82
6 | COc1cc(-c2[nH]c3ccc(C4CCC(N(C)Cc5cnc(C)cn5)CC4)nc3c2C(C)C)cn2ncnc12 (stereo not drawn) [Example 202] | 5.69 | 7.55 | 8.42
7 | COc1cc(-c2[nH]c3ccc(C4CCC(N(C)Cc5cnc(C)cn5)CC4)nc3c2C(C)C)cn2ncnc12 (stereo not drawn) [Example 203] | 6.27 | 8.10 | 8.70
8 | COc1cc(-c2[nH]c3ccc(C4CCC(NCc5cnco5)CC4)nc3c2C(C)C)cn2ncnc12 (stereo not drawn) [Example 204] | 5.88 | 8.54 | 9.01
9 | Cc1cnc(CNC2CCC(c3ccc4[nH]c(-c5cn(C)c6ncccc56)c(C(C)C)c4n3)CC2)cn1 (stereo not drawn) [Example 205] | 6.87 | 9.00 | 9.38
10 | COc1cc(-c2[nH]c3ccc(C4CCC(NCc5cnco5)CC4)nc3c2C(C)C)cn2ncnc12 (stereo not drawn) [Example 206] | 5.62 | 7.66 | 8.02
11 | Cc1cnc(CNC2CCC(c3ccc4[nH]c(-c5cn(C)c6ncccc56)c(C(C)C)c4n3)CC2)cn1 (stereo not drawn) [Example 207] | 6.60 | 8.36 | 8.72
12 | COc1cc(-c2[nH]c3ccc(C4CCC(N(C)Cc5ncccn5)CC4)nc3c2C(C)C)cn2ncnc12 (stereo not drawn) [Example 208] | 5.87 | 7.80 | 8.66
13 | COc1cc(-c2[nH]c3ccc(C4CCC(N(C)Cc5ncccn5)CC4)nc3c2C(C)C)cn2ncnc12 (stereo not drawn) [Example 209] | 6.19 | 8.40 | 9.15
14 | CNC(=O)CN(C)C1CCC(c2ccc3[nH]c(-c4cc(OC)c5ncnn5c4)c(C(C)C)c3n2)CC1 (stereo not drawn) [Example 210] | < 4.30 | < 5.51 | < 5.51
15 | COc1cc(-c2[nH]c3ccc(C4CCC(N(C)CC(=O)N(C)C)CC4)nc3c2C(C)C)cn2ncnc12 (stereo not drawn) [Example 211] | 6.23 | 8.17 | 8.96
16 | COc1cc(-c2[nH]c3ccc(C4CCC(N(C)CC(N)=O)CC4)nc3c2C(C)C)cn2ncnc12 (stereo not drawn) [Example 212] | 5.92 | 8.17 | 8.47
17 | COCc1cc(-c2[nH]c3ccc(C4CCC(NCC(=O)N(C)C)CC4)nc3c2C(C)C)cn2ncnc12 (stereo not drawn) [Example 213] | 6.15 | 7.77 | 8.02
18 | COCc1cc(-c2[nH]c3ccc(C4CCC(NC5COC5)CC4)nc3c2C(C)C)cn2ncnc12 (stereo not drawn) [Example 214] | 6.08 | 8.20 | 8.41
19 | CC(C)c1c(-c2cc(CO)c3ncnn3c2)[nH]c2ccc(C3CCC(NC4COC4)CC3)nc12 (stereo not drawn) [Example 215] | 5.65 | 8.12 | […]
20 | CC(C)c1c(-c2cc(CO)c3ncnn3c2)[nH]c2ccc(C3CCC(NCc4c[nH]nn4)CC3)nc12 (stereo not drawn) [Example 218] | 6.41 | 7.70 | 8.07
21 | COc1cc(-c2[nH]c3ccc(C4CCC(NCC5(S(C)(=O)=O)CC5)CC4)nc3c2C(C)C)cn2ncnc12 (stereo not drawn) [Example 219] | 5.60 | 8.10 | 8.41

Continued, values first:

Row | pIC50 (human TLR9) | pIC50 (human TLR8) | pIC50 (human TLR7) | SMILES
23 | 6.36 | 7.89 | 8.43 | CC(C)c1c(-c2cc(CO)c3ncnn3c2)[nH]c2ccc(C3CCC(NCc4c[nH]nn4)CC3)nc12 (stereo not drawn) [Example 221]
24 | 6.14 | 8.38 | 8.82 | Cc1cnc(CNC2CCC(c3ccc4[nH]c(-c5cc(CO)c6ncnn6c5)c(C(C)C)c4n3)CC2)cn1 (stereo not drawn) [Example 224]
25 | 5.47 | 7.46 | 8.40 | COc1cc(-c2[nH]c3ccc(C4CCC(N(C)CC(N)=O)CC4)nc3c2C(C)C)cn2ncnc12 (stereo not drawn) [Example 225]
26 | 5.75 | 7.85 | 8.57 | COc1cc(-c2[nH]c3ccc(C4CCC(N(C)CC(=O)N(C)C)CC4)nc3c2C(C)C)cn2ncnc12 (stereo not drawn) [Example 226]
27 | 6.03 | 8.11 | 8.70 | CNC(=O)CN(C)C1CCC(c2ccc3[nH]c(-c4cc(OC)c5ncnn5c4)c(C(C)C)c3n2)CC1 (stereo not drawn) [Example 227]
28 | 5.62 | 7.64 | 8.48 | CNC(=O)CN(C)C1CCC(c2ccc3[nH]c(-c4cc(OC)c5ncnn5c4)c(C(C)C)c3n2)CC1 (stereo not drawn) [Example 228]
29 | 5.77 | 7.74 | 7.72 | COCc1cc(-c2[nH]c3ccc(C4CCC(NC5COC5)CC4)nc3c2C(C)C)cn2ncnc12 (stereo not drawn) [Example 229]
30 | 5.61 | 7.48 | 7.42 | COCc1cc(-c2[nH]c3ccc(C4CCC(NCC(=O)N(C)C)CC4)nc3c2C(C)C)cn2ncnc12 (stereo not drawn) [Example 230]
31 | 6.44 | 8.52 | 9.21 | COc1cc(-c2[nH]c3ccc(C4CCC(NCC(=O)N(C)C)CC4)nc3c2C(C)C)cn2ncnc12 (stereo not drawn) [Example 231]
32 | 6.32 | 8.01 | 8.52 | COc1cc(-c2[nH]c3ccc(C4CCC(NCC(=O)N(C)C)CC4)nc3c2C(C)C)cn2ncnc12 (stereo not drawn) [Example 232]
33 | 5.57 | 7.62 | 7.96 | Cc1c(-c2[nH]c3ccc(C4CCC(NC5COC5)CC4)nc3c2C(C)C)cn2cnnc2c1C (stereo not drawn) [Example 233]
34 | 6.36 | 8.30 | 8.80 | Cc1c(-c2[nH]c3ccc(C4CCC(NC5COC5)CC4)nc3c2C(C)C)cn2cnnc2c1C (stereo not drawn) [Example 234]
35 | […] | 8.70 | […] | CC(C)c1c(-c2cc(CO)c3ncnn3c2)[nH]c2ccc(C3CCC(NC4COC4)CC3)nc12 (stereo not drawn) [Example 235]
36 | 6.42 | 8.55 | 8.41 | CC(C)c1c(-c2cn(C)c3ncccc23)[nH]c2ccc(C3CCC(NCC4(S(C)(=O)=O)CC4)CC3)nc12 (stereo not drawn) [Example 236]
37 | 4.74 | 7.72 | 7.70 | Cc1c(-c2[nH]c3ccc(C4CCC(N(C5CC5)C5COC5)CC4)nc3c2C(C)C)cn2cnnc2c1C (stereo not drawn) [Example 237]
38 | 6.53 | 9.01 | 9.15 | CC(C)c1c(-c2cn(C)c3ncccc23)[nH]c2ccc(C3CCC(NCC4(S(C)(=O)=O)CC4)CC3)nc12 (stereo not drawn) [Example 238]

From patent US10544143B2, “4-azaindole compounds” (BRISTOL-MYERS SQUIBB COMPANY, priority 2017, dated 2020)
